From article PMC12079613 (Journal of medicinal chemistry, 2019) come the findings set out here.

A value given as a limit tells only on which side of the number the result lay.

Assay [1] addresses T1, D3R (Homo sapiens, UniProt P35462). Kind of assay: Radioligand binding, [125I]IABN, HEK cells expressing human D3. The settings on record: for D2/D3 ratio: (Ki for D2 receptors)/(Ki for D3 receptors).
A further assay has as its target human D2 (long) (Homo sapiens, UniProt P14416). Nature of the assay: Radioligand binding, [125I]IABN, HEK cells expressing human D2. The settings on record: human D2 in HEK cells, mean ± SEM, at least three experiments.
Assay [2] addresses T1, D3R. Nature of the assay: Dopamine-mediated β-arrestin 2 recruitment assay. In kind it is cell-based. The settings on record: DA as orthosteric ligand. (In general: Arrestin recruitment assays detect the binding of arrestin to an activated receptor.)
The target of assay [3] is serotonin subclass receptors. Nature of the assay: PDSP binding, serotonin subclass receptors. The settings on record: read-out: Ki for all of the serotonin subclass receptors.
Another assay concerns the target α2β2 (Rattus norvegicus, UniProt P12389+P12390). Kind of assay: PDSP binding, α2β2. The settings on record: read-out: inhibition in primary assay at 10 μM.
A further assay deals with α2β4 (Rattus norvegicus, UniProt P12389+P12392). Kind of assay: PDSP binding, α2β4. The settings on record: read-out: inhibition in primary assay at 10 μM.
The target in the next assay is α3β2 (Rattus norvegicus, UniProt P04757+P12390). Kind of assay: PDSP binding, α3β2. The settings on record: read-out: inhibition in primary assay at 10 μM.
The target of the next assay is α4β4 (Rattus norvegicus, UniProt P09483+P12392). Nature of the assay: PDSP binding, α4β4. The settings on record: read-out: inhibition in primary assay at 10 μM.
The target in another assay is D2R (Homo sapiens, UniProt P14416). Kind of assay: PDSP β-arrestin recruitment Tango assay, D2R. In kind it is cell-based. The settings on record: Tango assays, agonist and antagonist mode.
Assay [4] concerns the target T1, D3R. Nature of the assay: PDSP β-arrestin recruitment Tango assay, D3R. In kind it is cell-based. The settings on record: Tango assays, agonist and antagonist mode.
Another assay concerns the target α3β4 (Rattus norvegicus, UniProt P04757+P12392). Nature of the assay: PDSP binding, α3β4. The settings on record: read-out: inhibition in primary assay at 10 μM.

T1 sequence (P35462 whole entry): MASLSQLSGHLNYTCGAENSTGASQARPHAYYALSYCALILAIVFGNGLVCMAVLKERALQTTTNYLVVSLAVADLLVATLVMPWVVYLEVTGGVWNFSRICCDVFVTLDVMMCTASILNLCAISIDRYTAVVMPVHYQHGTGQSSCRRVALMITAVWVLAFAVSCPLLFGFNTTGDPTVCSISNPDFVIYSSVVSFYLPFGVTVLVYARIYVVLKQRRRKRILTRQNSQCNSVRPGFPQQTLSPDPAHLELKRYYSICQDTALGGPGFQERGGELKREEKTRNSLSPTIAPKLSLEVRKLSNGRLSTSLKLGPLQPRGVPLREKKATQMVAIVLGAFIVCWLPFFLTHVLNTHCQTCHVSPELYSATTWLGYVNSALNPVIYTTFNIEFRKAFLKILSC
Chain of α3β2 (P04757 26-499): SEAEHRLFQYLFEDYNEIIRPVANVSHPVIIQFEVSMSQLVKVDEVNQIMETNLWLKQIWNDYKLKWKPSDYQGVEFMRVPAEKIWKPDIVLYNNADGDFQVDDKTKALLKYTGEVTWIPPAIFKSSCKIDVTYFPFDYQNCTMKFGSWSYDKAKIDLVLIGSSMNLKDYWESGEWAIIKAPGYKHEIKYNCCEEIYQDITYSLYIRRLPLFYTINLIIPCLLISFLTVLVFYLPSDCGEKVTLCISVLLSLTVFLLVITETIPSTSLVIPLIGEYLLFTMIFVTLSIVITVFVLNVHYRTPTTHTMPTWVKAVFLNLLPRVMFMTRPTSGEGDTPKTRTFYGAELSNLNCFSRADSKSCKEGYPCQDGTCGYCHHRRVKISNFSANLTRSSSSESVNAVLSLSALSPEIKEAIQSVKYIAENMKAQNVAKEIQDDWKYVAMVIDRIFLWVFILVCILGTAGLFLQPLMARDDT
Chain of α3β2 (P12390 25-500): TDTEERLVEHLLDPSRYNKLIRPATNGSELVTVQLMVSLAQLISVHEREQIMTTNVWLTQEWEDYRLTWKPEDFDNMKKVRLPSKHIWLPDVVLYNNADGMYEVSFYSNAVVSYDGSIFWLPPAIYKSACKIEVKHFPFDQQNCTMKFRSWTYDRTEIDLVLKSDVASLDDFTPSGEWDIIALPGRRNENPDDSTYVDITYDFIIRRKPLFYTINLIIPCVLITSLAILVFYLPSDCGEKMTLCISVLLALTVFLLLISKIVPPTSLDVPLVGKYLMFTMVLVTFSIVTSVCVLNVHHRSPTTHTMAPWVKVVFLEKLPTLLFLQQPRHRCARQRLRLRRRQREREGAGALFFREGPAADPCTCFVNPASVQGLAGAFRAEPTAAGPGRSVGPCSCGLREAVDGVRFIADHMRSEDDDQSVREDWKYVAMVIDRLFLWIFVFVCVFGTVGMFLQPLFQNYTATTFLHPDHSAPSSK
Chain of α2β2 (P12389 28-511): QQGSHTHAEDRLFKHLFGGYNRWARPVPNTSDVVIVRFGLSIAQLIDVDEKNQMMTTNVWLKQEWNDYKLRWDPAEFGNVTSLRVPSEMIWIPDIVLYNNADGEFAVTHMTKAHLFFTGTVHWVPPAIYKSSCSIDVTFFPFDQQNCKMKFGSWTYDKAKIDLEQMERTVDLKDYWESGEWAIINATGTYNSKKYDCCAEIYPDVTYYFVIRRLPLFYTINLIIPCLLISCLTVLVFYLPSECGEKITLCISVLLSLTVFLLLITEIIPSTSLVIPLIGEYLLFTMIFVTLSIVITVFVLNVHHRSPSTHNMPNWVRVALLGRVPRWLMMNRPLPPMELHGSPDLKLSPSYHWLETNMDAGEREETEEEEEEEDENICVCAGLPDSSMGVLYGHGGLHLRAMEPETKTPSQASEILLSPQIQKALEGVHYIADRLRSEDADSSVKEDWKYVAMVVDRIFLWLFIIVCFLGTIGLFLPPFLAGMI
Chain of α2β2 (P12390 25-500): as the sequence (P12390 25-500) above
Chain of α2β4 (P12389 28-511): as the sequence (P12389 28-511) above
Chain of α2β4 (P12392 21-495): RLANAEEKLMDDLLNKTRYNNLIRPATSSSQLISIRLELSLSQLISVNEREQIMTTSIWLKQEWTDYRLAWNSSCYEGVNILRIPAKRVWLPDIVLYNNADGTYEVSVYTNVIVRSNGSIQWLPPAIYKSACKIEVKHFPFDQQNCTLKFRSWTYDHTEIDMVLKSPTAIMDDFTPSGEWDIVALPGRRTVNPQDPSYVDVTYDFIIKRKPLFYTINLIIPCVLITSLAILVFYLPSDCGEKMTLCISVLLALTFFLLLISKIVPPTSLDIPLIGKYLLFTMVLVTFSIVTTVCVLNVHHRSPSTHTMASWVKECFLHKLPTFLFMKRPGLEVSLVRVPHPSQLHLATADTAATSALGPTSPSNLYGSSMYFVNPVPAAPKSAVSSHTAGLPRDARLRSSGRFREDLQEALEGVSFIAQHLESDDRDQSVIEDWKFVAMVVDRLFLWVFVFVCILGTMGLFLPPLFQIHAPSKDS
Chain of α4β4 (P09483 31-630): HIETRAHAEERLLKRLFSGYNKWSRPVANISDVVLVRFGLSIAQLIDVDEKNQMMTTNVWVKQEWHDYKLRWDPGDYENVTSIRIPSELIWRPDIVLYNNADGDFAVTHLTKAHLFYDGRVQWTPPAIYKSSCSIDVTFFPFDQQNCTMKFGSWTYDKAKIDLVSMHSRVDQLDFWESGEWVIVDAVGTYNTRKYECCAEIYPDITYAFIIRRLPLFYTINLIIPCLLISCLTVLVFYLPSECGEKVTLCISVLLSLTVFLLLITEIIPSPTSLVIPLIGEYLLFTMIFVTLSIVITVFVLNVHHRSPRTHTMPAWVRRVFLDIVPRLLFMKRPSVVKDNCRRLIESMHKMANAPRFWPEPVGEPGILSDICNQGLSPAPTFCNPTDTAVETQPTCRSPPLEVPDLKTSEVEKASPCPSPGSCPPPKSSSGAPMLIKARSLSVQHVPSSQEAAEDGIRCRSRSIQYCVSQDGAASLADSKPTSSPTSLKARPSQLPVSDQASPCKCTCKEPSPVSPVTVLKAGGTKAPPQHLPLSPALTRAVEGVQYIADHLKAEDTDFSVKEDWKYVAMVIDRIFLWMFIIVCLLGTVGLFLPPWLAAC
Chain of α4β4 (P12392 21-495): as the sequence (P12392 21-495) above
Chain of α3β4 (P04757 26-499): as the sequence (P04757 26-499) above
Chain of α3β4 (P12392 21-495): as the sequence (P12392 21-495) above
Chain of human D2 (long) (P14416 whole entry): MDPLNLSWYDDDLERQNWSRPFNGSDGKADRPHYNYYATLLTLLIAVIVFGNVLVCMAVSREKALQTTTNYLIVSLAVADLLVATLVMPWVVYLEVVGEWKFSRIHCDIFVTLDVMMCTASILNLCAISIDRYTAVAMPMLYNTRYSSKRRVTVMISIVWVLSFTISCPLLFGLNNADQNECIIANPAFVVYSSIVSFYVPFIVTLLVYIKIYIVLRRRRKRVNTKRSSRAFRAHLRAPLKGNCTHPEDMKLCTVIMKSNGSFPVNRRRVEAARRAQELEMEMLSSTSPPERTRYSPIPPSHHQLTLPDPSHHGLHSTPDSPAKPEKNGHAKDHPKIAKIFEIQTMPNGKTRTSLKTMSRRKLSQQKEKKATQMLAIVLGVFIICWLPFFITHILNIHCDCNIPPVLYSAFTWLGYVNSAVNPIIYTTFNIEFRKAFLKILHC
Chain of D2R (P14416 whole entry): as above

Take “3-(2-((4-Methyl-5-phenyl-4H-1,2,4-triazol-3-yl)thio)propyl)-3,9-diazaspiro[5.5]undecane [Compound 6f]”: at D3R [1], the D2/D3 ratio is more than 197.

As for `COc1ccccc1N1CCC2(CCNCC2)CC1` [4b], the D2/D3 ratio at D3R [1] is reported as more than 2.5. The “Ki ± SEM D3R” value at D3R [1] (human D3 in HEK cells, [125I]IABN, mean ± SEM, at least three experiments) is recorded as >39,319 nM. In addition, the “Ki ± SEM D2R” value at human D2 (long) is 99,379 ± 11,752 nM.

One may read the Ki as a measure of affinity in units of concentration, obtained from inhibition or displacement. By inhibition is commonly meant the relative decrease from the control value, in per cent. On to `COc1ccccc1N1CCC2(CCN(CCCSc3nnc(-c4ccccc4)n3C)CC2)CC1` [Compound 1, 3-(2-methoxyphenyl)-9-(3-((4-methyl-5-phenyl-4H-1,2,4-triazol-3-yl)thio)-propyl)-3,9-diazaspiro[5.5]undecane], for which the “Schild plot regression slope” value at D3R [2] was “linear regression slope near unity”. At D3R [2], the “shift of dopamine dose-response curves” value was “limitless rightward shift”. Moreover, the Ki in assay [3] is more than 1000 nM. For the same compound, the inhibition at 10 µM on α2β2, on α2β4, on α3β2 and at α4β4 was less than 50% throughout.

For the compound `CCCCN1CCC2(CC1)CCN(c1ccccc1OC)CC2` [Compound 5a, 3-Butyl-9-(2-methoxyphenyl)-3,9-diazaspiro[5.5]undecane], on D3R [1], the D2/D3 ratio is reported as more than 9.6.

`CCCCN1CCC2(CCN(c3ccccc3OC)C2)C1` (stereo not shown) [Compound 5c, 2-Butyl-7-(2-methoxyphenyl)-2,7-diazaspiro[4.4]nonane]: the D2/D3 ratio at D3R [1] is given as more than 1.1.

Turning to `CCCSc1nnc(-c2ccccc2)n1C` [Compound 6a, 4-Methyl-3-phenyl-5-(propylthio)-4H-1,2,4-triazole], at D3R [1], the D2/D3 ratio is more than 3.6.

Regarding `COc1ccccc1N1CCC2(CCN(CCCSc3nnc(-c4ccccc4)[nH]3)CC2)CC1` [Compound 17, 3-(2-Methoxyphenyl)-9-(3-((5-phenyl-4H-1,2,4-triazol-3-yl)thio)-propyl)-3,9-diazaspiro[5.5]undecane], the D2/D3 ratio at D3R [1] was determined as 35.

Turning to `COc1ccccc1N1CCC2(CCN(CCSc3nnc(-c4ccccc4)n3C)CC2)CC1` [Compound 20, 3-(2-Methoxyphenyl)-9-(2-((4-methyl-5-phenyl-4H-1,2,4-triazol-3-yl)thio)ethyl)-3,9-diazaspiro[5.5]undecane], the D2/D3 ratio on D3R [1] is reported as 100.

For the compound `COc1ccccc1N1CCN(CCCSc2nnc(-c3ccccc3)n2C)CC1` [Compound 31], at D3R [2], the “shift of dopamine dose-response curves” value is recorded as “limitless rightward shift”. Moreover, the “functional behavior at D2R” value on D2R is on record as “weak agonist/antagonist”. Besides, the “functional behavior at D3R” value on D3R [4] was “weak agonist/antagonist”. Further, the inhibition at 10 µM on α2β2, on α2β4, at α3β2, on α3β4 and on α4β4 was less than 50% in each case.

Regarding `COc1ccccc1N1CCC2(CCN(CCCSc3nnc(-c4ccccc4)n3C)C2)CC1` [Compound 34, 8-(2-Methoxyphenyl)-2-(3-((4-methyl-5-phenyl-4H-1,2,4-triazol-3-yl)thio)propyl)-2,8-diazaspiro[4.5]decane], on D3R [1] (relative to 33), the “increase in receptor selectivity” value is 2 fold.
